The source of these data is ChEMBL document CHEMBL5331124, “Degradation of Hexokinase 2 Blocks Glycolysis and Induces GSDME-Dependent Pyroptosis to Amplify Immunogenic Cell Death for Breast Cancer Therapy” (J Med Chem, 2023).

For one data set, the system named is HGC-27. Kind of data set: Antiproliferative activity against human HGC-27 cells assessed as cell growth inhibition measured for 72 hrs by MTT assay. It is filed as functional, cell-based. The note with it: HGC-27, 72 h. For orientation: Tetrazolium dyes change colour on reduction, which living cells bring about.
The next data set deals with HUVEC-T1 cell. Kind of data set: Inhibition of colony formation in human HUVEC-T1 cell at 5 to 20 uM incubated for 48 hrs by giemsa staining based analysis. The data set is classed as functional. Particulars: dose 5-20 µM.
The target in data set [1] is T1, Hexokinase-2 (Mus musculus) (UniProt O08528).
T1 sequence (whole entry): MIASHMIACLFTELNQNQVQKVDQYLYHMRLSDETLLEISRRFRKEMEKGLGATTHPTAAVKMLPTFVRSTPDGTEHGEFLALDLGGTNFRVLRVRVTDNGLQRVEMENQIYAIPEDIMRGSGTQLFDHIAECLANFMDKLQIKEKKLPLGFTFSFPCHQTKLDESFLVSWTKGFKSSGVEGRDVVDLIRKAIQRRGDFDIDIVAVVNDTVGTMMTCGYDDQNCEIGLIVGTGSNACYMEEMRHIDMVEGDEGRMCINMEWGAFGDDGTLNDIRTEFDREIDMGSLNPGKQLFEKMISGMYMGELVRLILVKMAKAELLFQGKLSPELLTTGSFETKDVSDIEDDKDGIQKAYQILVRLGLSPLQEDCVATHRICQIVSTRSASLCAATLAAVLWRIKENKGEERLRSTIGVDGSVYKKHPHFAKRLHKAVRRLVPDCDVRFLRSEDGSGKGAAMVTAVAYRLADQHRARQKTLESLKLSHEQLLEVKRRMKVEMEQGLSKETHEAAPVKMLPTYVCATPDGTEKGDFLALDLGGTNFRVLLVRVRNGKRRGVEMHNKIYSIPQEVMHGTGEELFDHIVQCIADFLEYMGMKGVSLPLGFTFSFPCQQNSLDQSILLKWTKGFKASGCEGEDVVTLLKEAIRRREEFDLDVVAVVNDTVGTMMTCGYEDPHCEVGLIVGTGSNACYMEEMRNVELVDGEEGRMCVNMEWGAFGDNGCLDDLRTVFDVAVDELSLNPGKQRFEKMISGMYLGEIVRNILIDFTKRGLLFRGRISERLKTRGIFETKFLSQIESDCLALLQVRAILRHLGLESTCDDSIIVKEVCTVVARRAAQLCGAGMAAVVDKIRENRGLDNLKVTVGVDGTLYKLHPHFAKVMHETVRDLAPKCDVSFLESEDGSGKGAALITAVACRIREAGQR
Kind of data set: Induction of HK2 degradation in mouse 4T1 cells upto 200 uM measured at 12 to 36 hrs. It is filed as cell-based. Particulars: time 12-36 hrs.

Data set [2] concerns the target T2, Hexokinase-2 (Homo sapiens) (UniProt P52789).
T2 sequence (whole entry): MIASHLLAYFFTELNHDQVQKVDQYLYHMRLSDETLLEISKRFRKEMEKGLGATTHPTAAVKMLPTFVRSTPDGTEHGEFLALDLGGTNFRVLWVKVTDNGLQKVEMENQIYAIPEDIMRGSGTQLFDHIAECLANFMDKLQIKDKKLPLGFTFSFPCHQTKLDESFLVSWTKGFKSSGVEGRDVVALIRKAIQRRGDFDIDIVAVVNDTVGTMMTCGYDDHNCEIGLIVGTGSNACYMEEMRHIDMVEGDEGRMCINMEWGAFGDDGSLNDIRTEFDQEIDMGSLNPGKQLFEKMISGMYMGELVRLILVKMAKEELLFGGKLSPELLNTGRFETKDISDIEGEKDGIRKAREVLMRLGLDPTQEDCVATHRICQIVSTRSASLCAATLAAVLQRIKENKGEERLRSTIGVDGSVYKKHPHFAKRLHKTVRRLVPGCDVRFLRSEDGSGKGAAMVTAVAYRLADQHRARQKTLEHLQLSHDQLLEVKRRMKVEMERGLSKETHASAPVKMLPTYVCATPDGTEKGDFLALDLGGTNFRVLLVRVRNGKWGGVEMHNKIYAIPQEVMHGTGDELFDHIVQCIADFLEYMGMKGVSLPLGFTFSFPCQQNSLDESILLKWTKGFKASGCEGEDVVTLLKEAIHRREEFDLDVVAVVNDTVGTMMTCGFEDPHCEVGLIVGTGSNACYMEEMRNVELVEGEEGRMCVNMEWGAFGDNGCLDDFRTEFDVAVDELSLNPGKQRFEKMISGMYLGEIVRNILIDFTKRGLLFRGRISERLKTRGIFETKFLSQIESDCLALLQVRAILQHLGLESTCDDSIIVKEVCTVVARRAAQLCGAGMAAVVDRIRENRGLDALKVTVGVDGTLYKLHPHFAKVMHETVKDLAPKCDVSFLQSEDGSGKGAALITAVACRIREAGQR
Kind of data set: Induction of HK2 degradation in human MDA-MB-231 cells measured for 36 hrs by confocal microscopic analysis. Particulars: dose 2.0 µM. It is filed as cell-based.

For data set [3], the system named is 4T1. Kind of data set: Inhibition of glycolysis in mouse 4T1 cells assessed as reduction in oxygen consumption rate at 20 uM incubated for 1 to 4 hrs by seahorse analyzer method. The data set is classed as functional, cell-based. Particulars: time 1-4 hrs.
In data set [4] the test system is 4T1. Kind of data set: Induction of pyroptosis in mouse 4T1 cells assessed as increase in full length GSDME level at 20 uM incubated for 36 hrs. The data set is classed as functional, cell-based.
Data set [5] deals with 4T1. Kind of data set: Induction of pyroptosis in mouse 4T1 cells assessed as early apoptotic cells at 20 uM incubated for 36 hrs by annexin V-FITC staining based flow cytometry analysis (reference value: 4.76 %). The data set is classed as functional.
The test system of data set [6] is 4T1. Kind of data set: Downregulation of PD-L1 expression in mouse 4T1 cells membrane at 20 uM measured for 36 hrs. The data set is classed as functional, cell membranes.
The subject of data set [7] is 4T1. Kind of data set: Antitumor activity against mouse 4T1 cells xenografted in BALB/c mouse assessed as reduction in tumor growth at 50 mg/kg, ip measured after 23 days. It is filed as functional, organism-based. The note with it: time 23.0 day.
Data set [8] deals with 4T1. Kind of data set: Antitumor immunity against mouse 4T1 cells implanted in BALB/c mouse model assessed as reduction tumor cell proliferation at 50 mg/kg, ip measured after 25 days by Ki67 staining based analysis. The data set is classed as functional, organism-based. The note with it: time 25.0 day.
In data set [9] the test system is 4T1. Kind of data set: Antitumor immunity against mouse 4T1 cells implanted in BALB/c mouse model assessed as upregulation of Il-1beta expression in mouse tumor by ELISA analysis. It is filed as functional, cell-based. In general terms: In an ELISA, binding on a coated surface is turned into a signal by an enzyme label.
Data set [10] has as its system 4T1. Kind of data set: Antitumor immunity against mouse 4T1 cells implanted in BALB/c mouse model assessed as increase in N-terminal GSDME expression in tumor. It is filed as functional, cell-based.
A further data set has as its system MDA-MB-231. Kind of data set: Antitumor immunity against human MDA-MB-231 cells xenografted in BALB/c nude mouse at 50 mg/kg, ip measured after 28 days. The note with it: time 28.0 day. It is filed as functional, organism-based. (Xenograft models place foreign cells or tissue in a host animal.)
Data set [11] deals with 4T1. Kind of data set: Antitumor activity against mouse 4T1 cells implanted in BALB/c mouse assessed as reduction in tumor growth at 50 mg/kg, ip measured after 23 days in presence of cisplatin. The data set is classed as functional, organism-based. The note with it: time 23.0 day.
Data set [12] deals with 4T1. Kind of data set: Antitumor activity against mouse 4T1 cells implanted in BALB/c mouse assessed as reduction in tumor volume at 50 mg/kg, ip measured after 23 days in presence of cisplatin. It is filed as functional, organism-based. The note with it: time 23.0 day.
Data set [13] is described as follows: Toxicity in BALB/c mouse implanted with mouse 4T1 cells assessed as effect on hematocrit level at 50 mg/kg, ip measured after 25 days in presence of cisplatin by routine blood test. It is filed as organism-based. Particulars: in vivo, 600 h, time 25 day.
A short description of data set [14]: Toxicity in BALB/c mouse implanted with mouse 4T1 cells assessed as effect on red blood cells at 50 mg/kg, ip measured after 25 days in presence of cisplatin by routine blood test. The data set is classed as organism-based. The note with it: in vivo, 600 h, time 25 day.

Activity calls are given as the source filed them. No cut-off for these calls is given here.

On to `O=C1CCC(N2C(=O)c3cccc(NCCCCNC(=O)c4nn(Cc5ccc(Cl)cc5Cl)c5ccccc45)c3C2=O)C(=O)N1` (configuration not stated), for which the IC50 with HGC-27 came out at 6.11 µM. Further, in the data set with HUVEC-T1 cell, the inhibition entry is “inactive”. Also, the result (in [1]; in the data set on 4T1 [4]; in the data set on 4T1 [6]; in the data set with 4T1 [7]; in the data set on 4T1 [8]; in the data set with 4T1 [9]) was Active. For the same compound, the outcome in the data set with 4T1 [10], in the data set with 4T1 [11] and in the data set on 4T1 [12] was Active. Besides, the Activity entry in [2] was “Dose-Dependent Effect”; in the data set with 4T1 [5] it was 9.85%; in data set [13], “Non-Toxic”; in [14] it was “Non-Toxic”. In addition, the inhibition result in the data set with 4T1 [3] is “Active”. Moreover, the result with MDA-MB-231 was inactive.

The term IC50 denotes the point on the concentration scale where inhibition reaches its midpoint.
